In PubChem BioAssay (NCI) one finds TGI and GI50 data, which are given here for 13 molecules.

“And” between values parts separate entries of the source, which are not always exact repeats. Identical values can stand only once.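 Five compound concentrations were applied to cells in 96-well plates for 48 hours; endpoints were derived by simple linear interpolation of the resulting dose-response curve. Abbreviation: GI50, concentration required for 50% inhibition of growth. TGI: total growth inhibition.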

What all share (test): growth of human tumour cells (NCI), 48 h
Test [1] has as its system SF-295 CNS.
For test [2], the system named is UACC-62 melanoma.
The subject of test [3] is A549 NSCLC.
Test [4] deals with HOP-92 NSCLC.
Test [5] deals with MALME-3M melanoma.
For test [6], the system named is HL-60(TB) leukemia.
Test [7] has as its system OVCAR-3 ovarian.
Test [8] deals with M14 melanoma.
For test [9], the system named is CCRF-CEM leukemia.
For test [10], the system named is T-47D breast.

As to `CC(=O)N1CC(=O)NC1=S`, the TGI in test [1], in [2], in [3], in test [4], in test [5] and in [6] was more than 100 µM in each case. Moreover, the TGI in test [7], in test [8] and in test [9] was more than 100 µM throughout.

As for `CSc1ccc(-c2cc(-c3nc4ccccc4[nH]3)nc(N)c2C#N)cc1`, the TGI is 53 µM in test [1]; 26 µM in [2]; more than 100 µM in test [3]; 54.7 µM in test [10]; 42.9 µM in test [4]; 44.5 µM in test [5]. For the same molecule, the TGI in [6] was 48.9 µM; in test [7] it was 43.1 µM; in [8] it was 33.8 µM; in [9], 80.1 µM.

Consider `Cc1c2cc[n+](C)cc2c(C)c2c1[nH]c1ccc(Cl)cc12`, for which the TGI was 4.37 µM in [1]; 45.1 µM in test [2]; 4.15 µM in test [3]; 14.8 µM in test [10]; 26.5 µM in test [4]; 10.4 µM in [5]. Further, the TGI in test [6] amounted to 21.5 µM; in [7], 22.6 µM; in [8], 40.6 µM; in [9], 26.5 µM.

With `N#CCCOCN(CO)c1nc(N(CO)COCCC#N)nc(N(CO)COCCC#N)n1`, the TGI in test [1] is 43.7 µM; in test [3], 58.3 µM; in test [4], 45.8 µM; in test [5] it was 46.9 µM; in test [6], 41.6 µM; in [7], 59.3 µM. Also, the TGI was determined as 45.1 µM in [8] and 58 µM in test [9].

Regarding `C=Cc1cc(OC)c2c(c1)c(=O)oc1c2cc(OC)c2c(O)ccc(C3OC(C)C(O)C(C)(O)C3O)c21` (centres undefined), the GI50 was 0.000699 µM in test [1]; 0.0012 µM in [2]; 0.000716 µM in test [3]; 0.000215 µM in test [4]; 0.00153 µM in [5]; 0.00181 µM in test [7]. Further, in [9], the GI50 was 0.0129 nM. Moreover, the TGI in [1] is 0.0099 µM and 0.0593 µM; in test [3], 0.376 µM; in test [10] it was 0.00439 µM; in test [4], 0.24 µM; in test [6], 0.0256 µM; in [8], 0.00162 µM.

In the case of `CN=C(N)/N=C(\N)Nc1cc2ccccc2c2ccccc12`, the TGI was 32.5 µM in [1]; 28.2 µM in test [2]; 30.8 µM in test [3]; 40.5 µM in test [10]; 40.8 µM in test [4]; 29.3 µM in test [5]. Moreover, the TGI in [6] was 19.8 µM; in test [7] it was 35.8 µM; in test [8], 33.4 µM; in test [9], 26.1 µM.

`CC(C)(O)CO/N=C1\C(c2c(O)[nH]c3ccccc23)=Nc2ccccc21`: the TGI in [1] is 18.4 µM; in test [2] it was 2.66 µM; in test [3], 11.1 µM; in [4], more than 91.6 µM; in test [5] it was more than 60.6 µM; in test [6] it was 3.1 µM. For the same molecule, the figures for the TGI in test [7], in test [8] and in test [9] were 5.95 µM, more than 43.3 µM and 6.54 µM, respectively.

Regarding `Cc1c(NC(=O)c2cc([N+](=O)[O-])cc([N+](=O)[O-])c2)c(=O)n(-c2ccccc2)n1C`, the TGI in test [2], in test [3], in [4], in test [5], in [6] and in [7] was more than 100 µM throughout. In addition, the TGI in [8] and in [9] was more than 100 µM in each case.

For the molecule `NC(=O)Nc1ccc(C(=O)NCCCNC(=O)c2ccc(NC(N)=O)cc2)cc1`, the TGI in test [2], in test [3], in test [10], in [4], in test [5] and in [6] was more than 100 µM throughout. In addition, the TGI in test [8] and in test [9] was more than 100 µM throughout.

As for `COc1c(O)c(O)c2c(c1O)C(=O)c1cc(C)cc(O)c1C2=O`, the TGI in test [1] was more than 69.7 µM; in [2], 54.5 µM; in test [3], more than 100 µM; in test [10], more than 100 µM; in [4], more than 100 µM; in [5] it was 83.5 µM. For the same molecule, the TGI in [6], in test [7], in test [8] and in test [9] was more than 100 µM in each case.

As to `Cc1ccc([N+](=O)[O-])cc1S(=O)(=O)Nc1ccc(C2=NN(C(=O)c3ccccc3)C(c3cccs3)C2)cc1` (centres undefined), the TGI was more than 100 µM in test [1]; more than 100 µM in test [3]; 84.2 µM in test [10]; 55.3 µM in test [4]; 68.6 µM in test [5]; more than 100 µM in [6]. In addition, the TGI was 45.5 µM in test [7], more than 100 µM in [8] and more than 100 µM in [9].

With `COc1ccccc1/C=C/c1c(N)ncnc1Nc1cccc(Cl)c1`, the TGI was 65 µM in test [1]; 33.3 µM in test [2]; 41.6 µM in test [3]; more than 100 µM in test [10]; 0.588 µM in test [4]; 59.7 µM in test [5]. Moreover, the TGI in test [6] is 0.969 µM; in [7], 59.5 µM; in test [8], 51.8 µM; in test [9], 1.12 µM.

With `Cc1ccc2ccc3ccc(C)nc3c2n1`, the TGI in test [1], in [2], in test [3], in [10], in [4] and in test [5] was more than 100 µM in each case. For the same molecule, the TGI in [6], in [7], in [8] and in test [9] was more than 100 µM each time.
